Laboratory results as given in the supplement of paper PMC10307832.

What was measured:
Experiment in all cases: relative viability (nuclei count vs DMSO), 5 days (fraction); higher = more cells survive
XMD8-85 + Pictilisib = compound: CN1CCN(CC1)C2=CC(=C(C=C2)NC3=NC=C4C(=N3)N(C5=CC=CC=C5C(=O)N4C)C)OC [XMD8-85] + CS(=O)(=O)N1CCN(Cc2cc3nc(-c4cccc5[nH]ncc45)nc(N4CCOCC4)c3s2)CC1 [Pictilisib] (partner 1 µM)
Summary of the method: (§1)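 Five library-drug doses in √10 steps were combined with a fixed anchor-drug dose, or a single drug was given alone, by pin tool to lung cancer cell lines in 1536-well plates the day after seeding. Nuclei were stained and counted after 5 days. Relative viability is the nuclei count in treated wells over that in vehicle wells, taken as the median of duplicate plates.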

XMD8-85 + Decitabine = compound: CN1CCN(CC1)C2=CC(=C(C=C2)NC3=NC=C4C(=N3)N(C5=CC=CC=C5C(=O)N4C)C)OC [XMD8-85] + Nc1ncn([C@H]2C[C@H](O)[C@@H](CO)O2)c(=O)n1 [Decitabine] (partner 2 µM)
Summary of the method: as §1

4EGI-1 + Trametinib = compound: O=C(O)C(Cc1ccccc1[N+](=O)[O-])=NNc1nc(-c2ccc(Cl)c(Cl)c2)cs1 (mixture of isomers) [4EGI-1] + CC(=O)Nc1cccc(-n2c(=O)n(C3CC3)c(=O)c3c(Nc4ccc(I)cc4F)n(C)c(=O)c(C)c32)c1 [Trametinib] (partner 0.02 µM)
Summary of the method: as §1

4EGI-1 + AZD7762 = compound: O=C(O)C(Cc1ccccc1[N+](=O)[O-])=NNc1nc(-c2ccc(Cl)c(Cl)c2)cs1 (mixture of isomers) [4EGI-1] + NC(=O)Nc1cc(-c2cccc(F)c2)sc1C(=O)N[C@H]1CCCNC1 [AZD7762] (partner 0.2 µM)
Summary of the method: as §1

Cell Line | relative viability (XMD8-85 + Pictilisib; first compound 0.08 µM) | relative viability (XMD8-85 + Pictilisib; first compound 0.253 µM) | relative viability (XMD8-85 + Pictilisib; first compound 0.8 µM) | relative viability (XMD8-85 + Pictilisib; first compound 2.53 µM) | relative viability (XMD8-85 + Pictilisib; first compound 8 µM) | relative viability (XMD8-85 + Decitabine; first compound 0.08 µM) | relative viability (XMD8-85 + Decitabine; first compound 0.253 µM) | relative viability (XMD8-85 + Decitabine; first compound 0.8 µM) | relative viability (XMD8-85 + Decitabine; first compound 2.53 µM) | relative viability (XMD8-85 + Decitabine; first compound 8 µM) | relative viability (4EGI-1 + Trametinib; first compound 0.5 µM) | relative viability (4EGI-1 + Trametinib; first compound 1.581 µM) | relative viability (4EGI-1 + Trametinib; first compound 5 µM) | relative viability (4EGI-1 + Trametinib; first compound 15.81 µM) | relative viability (4EGI-1 + Trametinib; first compound 50 µM) | relative viability (4EGI-1 + AZD7762; first compound 0.5 µM) | relative viability (4EGI-1 + AZD7762; first compound 1.581 µM) | relative viability (4EGI-1 + AZD7762; first compound 5 µM) | relative viability (4EGI-1 + AZD7762; first compound 15.81 µM) | relative viability (4EGI-1 + AZD7762; first compound 50 µM)
NCI-H2126 | 0.503 | 0.497 | 0.531 | 0.522 | 0.429 | 0.647 | 0.578 | 0.562 | 0.57 | 0.562 | 0.552 | 0.553 | 0.506 | 0.463 | 0.384 | 1.03 | 1.09 | 1 | 0.901 | 0.772
NCI-H596 | 0.392 | 0.396 | 0.359 | 0.397 | 0.354 | 0.941 | 1.01 |  | 2 | 0.873 | 1.09 | 0.83 | 0.918 | 0.661 | 0.545 | 1.07 | 1.21 | 1.31 | 0.769 | 0.279
NCI-H2009 | 0.753 | 0.722 | 0.892 | 0.653 | 0.364 | 0.42 | 0.371 | 0.414 | 0.417 | 0.255 | 0.339 | 0.28 | 0.306 | 0.24 | 0.139 |  |  |  |  | 
NCI-H2228 | 0.469 | 0.353 | 0.202 | 0.363 | 0.247 |  |  |  |  |  | 0.496 | 0.499 | 0.575 | 0.456 | 0.197 |  |  |  |  | 
NCI-H2085 | 0.378 | 0.427 | 0.467 | 0.436 | 0.445 | 0.546 | 0.529 | 0.538 | 0.535 | 0.517 | 0.553 | 0.594 | 0.53 | 0.355 | 0.364 | 1.1 | 1.02 | 0.969 | 0.736 | 0.655
SW 900 |  |  |  |  |  | 0.505 | 0.45 | 0.406 | 0.458 | 0.506 | 1.11 | 0.8 | 0.773 | 0.584 | 0.173 | 0.833 | 0.583 | 0.574 | 0.377 | 0.173
H3255 | 0.565 | 0.465 |  | 0.531 | 0.414 | 0.838 | 0.682 | 0.977 | 0.316 | 0.358 | 0.679 |  | 0.614 |  | 0.523 | 1.02 | 0.793 | 0.981 | 0.554 | 0.53
UMC-11 | 0.696 | 0.757 | 0.922 | 0.796 | 0.513 | 0.568 | 0.618 | 0.594 | 0.545 | 0.544 | 0.984 | 0.71 | 0.771 | 0.873 | 0.493 |  |  |  |  | 
NCI-H727 | 0.373 | 0.387 | 0.342 | 0.433 | 0.327 | 0.867 | 1.04 | 0.84 | 0.894 | 0.643 | 0.365 | 0.398 | 0.377 | 0.386 | 0.376 | 0.631 | 0.631 | 0.511 | 0.519 | 0.478
NCI-H1299 | 0.651 | 0.908 | 0.874 | 0.643 | 0.367 |  |  |  |  |  |  |  |  |  |  |  |  |  |  | 
NCI-H1563 | 0.703 | 0.652 | 0.646 | 0.663 | 0.62 |  |  |  |  |  |  |  |  |  |  |  |  |  |  | 
NCI-H1648 |  |  |  |  |  | 0.478 | 0.447 | 0.635 | 0.638 | 0.561 | 0.574 | 0.506 | 0.471 | 0.526 | 0.304 | 0.662 | 0.674 | 0.707 | 0.602 | 0.517
CAL-12T | 0.396 | 0.541 | 0.393 | 0.395 | 0.321 |  |  |  |  |  | 0.348 |  | 0.358 | 0.281 | 0.191 | 0.643 |  | 0.649 | 0.518 | 0.366
COR-L 105 | 0.429 | 0.415 | 0.359 | 0.353 | 0.303 |  | 0.731 | 0.7 | 0.537 | 0.466 | 0.462 | 0.444 | 0.44 | 0.401 | 0.394 |  |  |  |  | 
Calu-6 | 1.02 | 0.97 | 1.05 | 0.979 | 0.572 |  |  |  |  |  |  |  |  |  |  |  |  |  |  | 
IA-LM | 0.342 | 0.187 | 0.334 | 0.193 | 0.143 |  |  |  |  |  |  |  |  |  |  |  |  |  |  | 
EBC-1 | 0.383 | 0.364 | 0.502 | 0.339 | 0.18 |  |  |  |  |  |  |  |  |  |  |  |  |  |  | 
COR-L23 | 0.8 | 0.717 | 1.01 | 0.798 | 0.577 | 0.513 | 0.397 | 0.506 | 0.458 | 0.409 | 0.898 | 0.336 | 0.628 | 0.415 | 0.16 |  |  |  |  | 
SK-LU-1 | 0.397 |  | 0.569 | 0.6 | 0.522 | 0.607 | 0.58 | 0.61 | 0.705 | 0.549 | 0.5 | 0.527 | 0.538 | 0.474 | 0.326 |  |  |  |  | 
A549 | 0.517 | 0.516 | 0.591 |  | 0.483 | 0.296 | 0.252 | 0.237 | 0.369 | 0.384 |  |  |  |  |  |  |  |  |  | 
NCI-H661 | 0.406 | 0.419 | 0.412 | 0.366 | 0.357 | 0.589 | 0.552 | 0.629 | 0.62 | 0.553 | 0.653 | 0.524 | 0.572 | 0.439 | 0.29 |  |  |  |  | 
NCI-H2023 | 0.199 | 0.274 | 0.259 | 0.265 | 0.178 | 0.176 | 0.198 | 0.25 | 0.244 | 0.227 | 0.865 |  | 0.593 | 0.214 | 0.0814 |  |  |  |  | 
ABC-1 | 0.628 | 0.614 | 0.942 | 0.746 |  | 1.42 | 1.09 | 1.49 | 1.11 | 0.745 |  |  |  |  |  | 0.758 |  | 0.774 | 0.506 | 0.516
NCI-H1703 | 0.236 | 0.234 | 0.269 | 0.229 | 0.196 |  |  |  |  |  |  |  |  |  |  | 0.121 | 0.131 | 0.147 | 0.12 | 0.119
NCI-H522 |  |  |  |  |  | 0.739 | 0.669 | 0.615 | 0.782 | 0.635 | 0.787 | 0.681 | 0.847 | 0.859 | 0.677 | 0.947 | 0.71 | 0.985 | 0.874 | 0.783
